Earlier results as cited in US20230001221A1, “Methods of Treating Cancer with Alternating Electric Fields, Checkpoint Inhibitors, and Combination Chemotherapy” (Novocure GmbH, priority 2021, published 2023).

Assays:
[1] = system: tumor growth; conditions: in-vivo, TTFields added to the chemotherapy
[2] = system: human and murine pancreatic cancer cell lines; conditions: in-vitro, TTFields combined with the chemotherapy

| SMILES | inhibition of tumor growth [1] | cytotoxicity when combined with TTFields [2] |
| --- | --- | --- |
| O=c1[nH]cc(F)c(=O)[nH]1 [5-FU, fluorouracil] | significant inhibition of tumor growth |  |
| Nc1ccn([C@@H]2O[C@H](CO)[C@@H](O)C2(F)F)c(=O)n1 [gemcitabine] | significant inhibition of tumor growth | enhanced cytotoxicity |
| CCc1c2c(nc3ccc(OC(=O)N4CCC(N5CCCCC5)CC4)cc13)-c1cc3c(c(=O)n1C2)COC(=O)[C@]3(O)CC [irinotecan] |  | enhanced cytotoxicity |
